Test results published in publication PMC6979384, “Characterization of the plant homeodomain (PHD) reader family for their histone tail interactions” (Epigenetics & Chromatin, 2020).

Tests used:
Assay in all cases: Histone peptide microarray
Format in all cases: binding, human
DPF2 (PPC2W2) = settings: DPF2 (PPC2W2), GST-tagged; arrays performed twice, n of 4
Description: (§1) To more comprehensively define the histone interactions of the 31 PHD readers identified from the domain microarray analyses, we probed each on an alternate microarray platform containing a library of 293 synthetic histone peptides with single or combinatorial PTMs (Additional file 2: Figure S4 and Additional file 3: Table S2).
(§2) The 31 GST-tagged PHD readers identified in the PHD finger domain array were expressed and purified as previously. Histone peptide arrays and peptide pulldown assays were conducted as recently described (specifically, the optimized protocol from Petell et al. for the former).
(§3) Supplementary file 13072_2020_328_MOESM3_ESM.xlsx: Additional file 3: Table S2. […] Excel Tab Peptide List is a compiled list of the entire 293 histone peptide library with amino acid sequence ranges. […] Each number corresponds to the peptide number designated in Peptide List. Excel Tab Average Signals is a compiled set of binding data: chromatin reader at 0.5 μM vs. entire 293 peptide library. Data is presented as the average and standard deviation of 4 replicates. The average signals are colored to indicate signal intensity with green being strong and white being weak/low. […] Key: red= stronger relative binding; blue = weaker relative binding. Excel Tab Array info summary is a table summarizing the domains, sequence coverage, array signal range, and noise for each of the GST-tagged readers assayed on the peptide microarrays.

PHF21A = settings: PHF21A, GST-tagged; arrays performed twice, n of 4
Description: as §1, §2, §3

KDM5A (1) = settings: KDM5A (1), GST-tagged; arrays performed twice, n of 4
Description: as §1, §2, §3

KDM7A = settings: KDM7A, GST-tagged; arrays performed twice, n of 4
Description: as §1, §2, §3

AIRE (PP) = settings: AIRE (PP), GST-tagged; arrays performed twice, n of 4
Description: as §1, §2, §3

KDM4C (TTP) = settings: KDM4C (TTP), GST-tagged; arrays performed twice, n of 4
Description: as §1, §2, §3

BPTF (PB) = settings: BPTF (PB), GST-tagged; arrays performed twice, n of 4
Description: as §1, §2, §3

RAG2 = settings: RAG2, GST-tagged; arrays performed twice, n of 4
Description: as §1, §2, §3

ING1 = settings: ING1, GST-tagged; arrays performed twice, n of 4
Description: as §1, §2, §3

SP140L = settings: SP140L, GST-tagged; arrays performed twice, n of 4
Description: as §1, §2, §3

CHD4 (PPCC) = settings: CHD4 (PPCC), GST-tagged; arrays performed twice, n of 4
Description: as §1, §2, §3

DIDO1 = settings: DIDO1, GST-tagged; arrays performed twice, n of 4
Description: as §1, §2, §3

MORC3 (CW) = settings: MORC3 (CW), GST-tagged; arrays performed twice, n of 4
Description: as §1, §2, §3

ING4 = settings: ING4, GST-tagged; arrays performed twice, n of 4
Description: as §1, §2, §3

TAF3 = settings: TAF3, GST-tagged; arrays performed twice, n of 4
Description: as §1, §2, §3

MLL5 = settings: MLL5, GST-tagged; arrays performed twice, n of 4
Description: as §1, §2, §3

ING5 = settings: ING5, GST-tagged; arrays performed twice, n of 4
Description: as §1, §2, §3

CHD5 (PPCC) = settings: CHD5 (PPCC), GST-tagged; arrays performed twice, n of 4
Description: as §1, §2, §3

PHF2 = settings: PHF2, GST-tagged; arrays performed twice, n of 4
Description: as §1, §2, §3

KDM5A (3) = settings: KDM5A (3), GST-tagged; arrays performed twice, n of 4
Description: as §1, §2, §3

KDM5B (3) = settings: KDM5B (3), GST-tagged; arrays performed twice, n of 4
Description: as §1, §2, §3

PHF8 = settings: PHF8, GST-tagged; arrays performed twice, n of 4
Description: as §1, §2, §3

ING2 = settings: ING2, GST-tagged; arrays performed twice, n of 4
Description: as §1, §2, §3

CHD5 (PCC) = settings: CHD5 (PCC), GST-tagged; arrays performed twice, n of 4
Description: as §1, §2, §3

PHRF1 (RP) = settings: PHRF1 (RP), GST-tagged; arrays performed twice, n of 4
Description: as §1, §2, §3

PHF23 = settings: PHF23, GST-tagged; arrays performed twice, n of 4
Description: as §1, §2, §3

ING3 = settings: ING3, GST-tagged; arrays performed twice, n of 4
Description: as §1, §2, §3

TRIM66 (PB) = settings: TRIM66 (PB), GST-tagged; arrays performed twice, n of 4
Description: as §1, §2, §3

PHF13 = settings: PHF13, GST-tagged; arrays performed twice, n of 4
Description: as §1, §2, §3

BAZ2B = settings: BAZ2B, GST-tagged; arrays performed twice, n of 4
Description: as §1, §2, §3

Array Heatmap value (peptide array binding signal) (DPF2 (PPC2W2))	Array Heatmap value (peptide array binding signal) (PHF21A)	Array Heatmap value (peptide array binding signal) (KDM5A (1))	Array Heatmap value (peptide array binding signal) (KDM7A)	Array Heatmap value (peptide array binding signal) (AIRE (PP))	Array Heatmap value (peptide array binding signal) (KDM4C (TTP))	Array Heatmap value (peptide array binding signal) (BPTF (PB))	Array Heatmap value (peptide array binding signal) (RAG2)	Array Heatmap value (peptide array binding signal) (ING1)	Array Heatmap value (peptide array binding signal) (SP140L)	Array Heatmap value (peptide array binding signal) (CHD4 (PPCC))	Array Heatmap value (peptide array binding signal) (DIDO1)	Array Heatmap value (peptide array binding signal) (MORC3 (CW))	Array Heatmap value (peptide array binding signal) (ING4)	Array Heatmap value (peptide array binding signal) (TAF3)	Array Heatmap value (peptide array binding signal) (MLL5)	Array Heatmap value (peptide array binding signal) (ING5)	Array Heatmap value (peptide array binding signal) (CHD5 (PPCC))	Array Heatmap value (peptide array binding signal) (PHF2)	Array Heatmap value (peptide array binding signal) (KDM5A (3))	Substance	further results
0.6914	0.4992	0.4987	0.4671	0.5703	0.5553	0.3598	0.2531	0.5248	0.3826	0.5759	0.6459	0.3777	0.4864	0.2763	0.5505	0.3813	0.5916	0.4562	0.4276	H4K8ac + K12ac: H4 1-23	Array Heatmap value (peptide array binding signal) (KDM5B (3)): 0.5016; Array Heatmap value (peptide array binding signal) (PHF8): 0.3425; Array Heatmap value (peptide array binding signal) (ING2): 0.5831; Array Heatmap value (peptide array binding signal) (CHD5 (PCC)): 0.8072; Array Heatmap value (peptide array binding signal) (PHRF1 (RP)): 0.4073; Array Heatmap value (peptide array binding signal) (PHF23): 0.5272; Array Heatmap value (peptide array binding signal) (ING3): 0.4849; Array Heatmap value (peptide array binding signal) (TRIM66 (PB)): 0.5841; Array Heatmap value (peptide array binding signal) (PHF13): 0.6286; Array Heatmap value (peptide array binding signal) (BAZ2B): 0.5085
0.6725	0.4807	0.512	0.4148	0.5419	0.5368	0.3587	0.2452	0.5081	0.3646	0.5794	0.6199	0.3621	0.4785	0.2852	0.5364	0.3709	0.5684	0.4411	0.4422	H4K8ac + K20ac: H4 1-23	Array Heatmap value (peptide array binding signal) (KDM5B (3)): 0.4924; Array Heatmap value (peptide array binding signal) (PHF8): 0.3864; Array Heatmap value (peptide array binding signal) (ING2): 0.5825; Array Heatmap value (peptide array binding signal) (CHD5 (PCC)): 0.8384; Array Heatmap value (peptide array binding signal) (PHRF1 (RP)): 0.4283; Array Heatmap value (peptide array binding signal) (PHF23): 0.5223; Array Heatmap value (peptide array binding signal) (ING3): 0.4639; Array Heatmap value (peptide array binding signal) (TRIM66 (PB)): 0.5664; Array Heatmap value (peptide array binding signal) (PHF13): 0.5975; Array Heatmap value (peptide array binding signal) (BAZ2B): 0.4848
0.6637	0.4767	0.4687	0.3784	0.5176	0.4892	0.3565	0.2369	0.529	0.3563	0.5676	0.6429	0.3738	0.47	0.2987	0.5457	0.3611	0.5492	0.4717	0.425	H4K16ac + K20ac: H4 1-23	Array Heatmap value (peptide array binding signal) (KDM5B (3)): 0.4989; Array Heatmap value (peptide array binding signal) (PHF8): 0.3492; Array Heatmap value (peptide array binding signal) (ING2): 0.5955; Array Heatmap value (peptide array binding signal) (CHD5 (PCC)): 0.7957; Array Heatmap value (peptide array binding signal) (PHRF1 (RP)): 0.4351; Array Heatmap value (peptide array binding signal) (PHF23): 0.5182; Array Heatmap value (peptide array binding signal) (ING3): 0.4609; Array Heatmap value (peptide array binding signal) (TRIM66 (PB)): 0.6284; Array Heatmap value (peptide array binding signal) (PHF13): 0.6126; Array Heatmap value (peptide array binding signal) (BAZ2B): 0.4551
0.7325	0.5171	0.5302	0.3878	0.484	0.5634	0.3984	0.2856	0.5918	0.3938	0.615	0.7637	0.4113	0.5155	0.311	0.5849	0.4228	0.6446	0.5298	0.4753	H4S1p + K5ac + K8ac + K12ac + K16ac: H4 1-23	Array Heatmap value (peptide array binding signal) (KDM5B (3)): 0.545; Array Heatmap value (peptide array binding signal) (PHF8): 0.3922; Array Heatmap value (peptide array binding signal) (ING2): 0.6187; Array Heatmap value (peptide array binding signal) (CHD5 (PCC)): 0.835; Array Heatmap value (peptide array binding signal) (PHRF1 (RP)): 0.5208; Array Heatmap value (peptide array binding signal) (PHF23): 0.5865; Array Heatmap value (peptide array binding signal) (ING3): 0.5554; Array Heatmap value (peptide array binding signal) (TRIM66 (PB)): 0.6554; Array Heatmap value (peptide array binding signal) (PHF13): 0.677; Array Heatmap value (peptide array binding signal) (BAZ2B): 0.5342
